Source: patent US8802664B2 (Bioproject, priority 2010, dated 2014)

Biological target: T1, human H4 receptor (Homo sapiens, UniProt Q9H3N8)
T1 construct: expressed in transfected cells
Assay: [3H]Histamine binding on membranes of CHO cells stably expressing human H4 receptor
Outline: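 Nonspecific signal was taken as that remaining with 10 μM JNJ 7777120 present. Assays contained 20 μg CHO-derived hH4 membrane protein in Tris/HCl–EDTA buffer (pH 7.4) and were terminated on polyethyleneimine-soaked filters, with bound tritium quantified by scintillation.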

Structure (SMILES)	Ki or IC50 activity class [µM]
CN1CCC(OC(c2cccc(OC3CCC(N)CC3)c2)c2nc3ccccc3s2)CC1 (stereo not drawn) [Example 477]	< 1
CN1CCC(OC(c2cccc(OCCCN3CCOCC3)c2)c2nc3ccccc3s2)CC1 (stereo not drawn) [Example 350, 2-{(1-methylpiperidin-4-yloxy)[3-(3-morpholin-4-yl-propoxy)phenyl]methyl}benzothiazole]	< 1
CN1CCC(OC(c2cccc(OCc3cccc(C(F)(F)F)c3)c2)c2nc3ccccc3s2)CC1 (stereo not drawn) [Example 187, 2-{(1-methylpiperidin-4-yloxy)[3-(3-trifluoromethyl-benzyloxy)phenyl]methyl}benzothiazole]	< 0.03
CN1CCC(OC(c2cccc(SCCN)c2)c2nc3cc(F)ccc3[nH]2)CC1 (stereo not drawn) [Example 428, 2-{3-[(5-fluoro-1H-benzimidazol-2-yl)(1-methylpiperidin-4-yloxy)methyl]phenylsulfanyl}ethylamine]	< 0.3
CN1CCC(OC(c2cccc(-c3ccc(F)cc3)c2)c2nc3ccccc3[nH]2)CC1 (stereo not drawn) [Example 115, 2-[(4′-fluorobiphenyl-3-yl)(1-methylpiperidin-4-yloxy)methyl]-1H-benzimidazole]	< 0.3
CN1CCC(OC(c2nc3ccccc3s2)c2ccccc2Cl)CC1 (stereo not drawn) [Example 281, 2-[(2-Chlorophenyl)(1-methylpiperidin-4-yloxy)methyl]benzothiazole]	< 1
CN1CCC(OC(c2nc3ccccc3s2)c2ccc(F)cc2F)CC1 (stereo not drawn) [Example 12, 2-[(2,4-difluorophenyl)(1-methyl-piperidin-4-yloxy)methyl]-benzothiazole]	< 0.3
CN1CCC(OC(c2cccc(OCc3cc(F)ccc3F)c2)c2nc3ccccc3s2)CC1 (stereo not drawn) [Example 156, 2-[[3-(2,5-difluorobenzyloxy)phenyl](1-methylpiperidin-4-yloxy)methyl]benzothiazole]	< 0.03
CN1CCC(OC(c2cccc(SCCCCCN)c2)c2nc3ccccc3s2)CC1 (stereo not drawn) [Example 305, 5-{3-[benzothiazol-2-yl(1-methylpiperidin-4-yloxy)methyl]phenylsulfanyl}pentylamine]	< 0.03
CN1CCC(OC(c2cccc(SCCCCCCN)c2)c2nc3ccccc3[nH]2)CC1 (stereo not drawn) [Example 451]	< 0.3
CN1CCC(OC(c2cccc(Oc3cccnc3)c2)c2nc3ccccc3s2)CC1 (stereo not drawn) [Example 448, 2-{(1-methylpiperidin-4-yloxy)[3-(pyridin-3-yloxy)phenyl]methyl}benzothiazole]	< 0.3
CN1CCC(OC(c2cccc(C#CC3CN(C(=N)N)C3)c2)c2nc3ccccc3[nH]2)CC1 (stereo not drawn) [Example 426, 3-{3-[(1H-benzimidazol-2-yl)(1-methylpiperidin-4-yloxy)methyl]phenylethynyl}azetidine-1-carboxamidine]	< 0.3
CN1CCC(OC(c2cccc(OCCCC(F)(F)F)c2)c2nc3ccccc3s2)CC1 (stereo not drawn) [Example 169, 2-{(1-methylpiperidin-4-yloxy)[3-(4,4,4-trifluoro-butoxy)phenyl]methyl}benzothiazole]	< 1
CN1CCC(OC(c2cccc(OCCCF)c2)c2nc3ccccc3s2)CC1 (stereo not drawn) [Example 176, 2-[[3-(3-fluoropropoxy)phenyl](1-methylpiperidin-4-yloxy)methyl]benzothiazole]	< 0.03
CN1CCC(OC(c2cccc(SCC(N)=O)c2)c2nc3ccccc3s2)CC1 (stereo not drawn) [Example 263, 2-{3-[benzothiazol-2-yl(1-methylpiperidin-4-yloxy)methyl]phenylsulfanyl}acetamide]	< 1
CN1CCC(OC(c2cccc(SC(F)(F)F)c2)c2nc3ccccc3[nH]2)CC1 (stereo not drawn) [Example 517]	< 0.03
Cc1ccc(F)c(C(OC2CCN(C)CC2)c2nc3ccccc3[nH]2)c1 (stereo not drawn) [Example 490]	< 0.3
CN1CCC(OC(c2cccc(SCCCCN)c2)c2nc3cc(F)c(F)cc3[nH]2)CC1 (stereo not drawn) [Example 495]	< 0.03
CN1CCC(OC(c2cccc(-c3cccc(F)c3)c2)c2nc3ccccc3[nH]2)CC1 (stereo not drawn) [Example 109, 2-[(3′-fluoro-biphenyl-3-yl)(1-methylpiperidin-4-yloxy)methyl]-1H-benzimidazole]	< 0.3
CN1CCC(OC(c2cccc(OCCN3CCNCC3)c2)c2nc3ccccc3s2)CC1 (stereo not drawn) [Example 330, 2-{(1-methylpiperidin-4-yloxy)[3-(2-piperazin-1-yl-ethoxy)phenyl]methyl}benzothiazole]	< 0.3
c1ccc2[nH]c(C(OC3CCNCC3)c3ccsc3)nc2c1 (stereo not drawn) [Example 538]	< 1
CN1CCC(OC(c2cccc(OCCCCCNCCCCN)c2)c2nc3ccccc3[nH]2)CC1 (stereo not drawn) [Example 419, N1-(5-{3-[(1H-benzimidazol-2-yl)(1-methylpiperidin-4-yloxy)methyl]phenoxy}pentyl)butane-1,4-diamine]	< 1
CCCCCOc1cccc(C(NC2CCN(C)CC2)c2nc3ccccc3[nH]2)c1 (stereo not drawn) [Example 95, [(1H-benzimidazol-2-yl)(3-pentyloxyphenyl)methyl](1-methylpiperidin-4-yl)amine]	< 0.03
CN1CCC(OC(c2cccc(OC3CCNC3)c2)c2nc3ccccc3s2)CC1 (stereo not drawn) [Example 383, 2-{(1-methylpiperidin-4-yloxy)[3-(pyrrolidin-3-yloxy)phenyl]methyl}benzothiazole]	< 0.3
CN1CCC(OC(c2cccc(SCCNC(=N)N)c2)c2nc3ccccc3[nH]2)CC1 (stereo not drawn) [Example 278, N-(2-{3-[(1H-benzimidazol-2-yl)(1-methylpiperidin-4-yloxy)methyl]phenylsulfanyl}ethyl)guanidine]	< 0.03

More lines, now with the values ahead:

Ki or IC50 activity class [µM]	Structure (SMILES)
< 0.3	CN1CCC(OC(c2cccc(SCCCCO)c2)c2nc3ccccc3[nH]2)CC1 (stereo not drawn) [Example 248, 4-{3-[(1H-benzimidazol-2-yl)(1-methylpiperidin-4-yloxy)methyl]phenylsulfanyl}butan-1-ol]
< 0.3	COC(=O)CSc1cccc(C(OC2CCN(C)CC2)c2nc3ccccc3[nH]2)c1 (stereo not drawn) [Example 154, {3-[(1H-benzimidazol-2-yl)(1-methylpiperidin-4-yloxy)methyl]phenylsulfanyl}acetic acid methyl ester]
< 0.3	CN1CCC(OC(c2cccc(SCCCCCO)c2)c2nc3ccccc3[nH]2)CC1 (stereo not drawn) [Example 445, 5-{3-[(1H-benzimidazol-2-yl)(1-methylpiperidin-4-yloxy)methyl]phenylsulfanyl}pentan-1-ol]
< 0.03	CN1CCC(OC(c2cccc(OCc3ccco3)c2)c2nc3ccccc3s2)CC1 (stereo not drawn) [Example 267, 2-[[3-(furan-2-ylmethoxy)phenyl](1-methylpiperidin-4-yloxy)methyl]benzothiazole]
< 0.3	CN1CC(COC(c2cccc(Br)c2)c2nc3ccccc3[nH]2)C1 (stereo not drawn) [Example 506]
< 0.3	COCCOc1cccc(C(OC2CCN(C)CC2)c2nc3ccccc3s2)c1 (stereo not drawn) [Example 277, 2-[[3-(2-methoxyethoxy)phenyl](1-methylpiperidin-4-yloxy)methyl]benzothiazole]
< 0.3	CC(=O)COCC#Cc1cccc(C(OC2CCN(C)CC2)c2nc3ccccc3s2)c1 (stereo not drawn) [Example 275, 1-(3-{3-[benzothiazol-2-yl(1-methylpiperidin-4-yloxy)methyl]phenyl}prop-2-ynyloxy)-propan-2-one]
< 0.03	CN1CCC(OC(c2cccc(SC[C@H]3C[C@H]3CN)c2)c2nc3ccccc3[nH]2)CC1 (stereo partly drawn) [Example 494]
< 0.3	CCOCCn1c(C(OC2CCN(C)CC2)c2cccc(C#CCCCCN)c2)nc2ccccc21 (stereo not drawn) [Example 500]
< 0.03	COc1ccc(F)c(C(OC2CCN(C)CC2)c2nc3ccccc3[nH]2)c1 (stereo not drawn) [Example 486]
< 0.3	CN1CCC(OC(c2nc3cccc(F)c3[nH]2)c2cc(OC(F)(F)F)ccc2F)CC1 (stereo not drawn) [Example 529]
< 1	CN1CCC(OC(c2cccc(OCCN3CCN(C(=O)OC(C)(C)C)CC3)c2)c2nc3ccccc3[nH]2)CC1 (stereo not drawn) [Example 369, 4-(2-{3-[(1H-benzimidazol-2-yl)(1-methylpiperidin-4-yloxy)methyl]phenoxy}ethyl)piperazine-1-carboxylic acid tert-butyl ester]
< 0.3	CN1CCC(OC(c2cccc(C#CCCCn3ccnc3)c2)c2nc3ccccc3[nH]2)CC1 (stereo not drawn) [Example 409, 2-[[3-(5-imidazol-1-ylpent-1-ynyl)phenyl](1-methylpiperidin-4-yloxy)methyl]-1H-benzimidazole]
< 0.03	Cc1ccc(C(OC2CCN(C)CC2)c2nc3ccccc3[nH]2)cc1 (single isomer, unassigned) [Example 253, 2-[(1-methylpiperidin-4-yloxy)-p-tolylmethyl]-1H-benzimidazole]
< 1	CN1CCC(OC(c2ccc(OC(F)(F)F)cc2)c2nc3ccccc3s2)CC1 (stereo not drawn) [Example 24, 2-[(1-methylpiperidin-4-yloxy)(4-trifluoromethoxyphenyl)methyl]benzothiazole]
< 0.03	CN1CCC(OC(c2nc3ccccc3[nH]2)c2ccccc2O)CC1 (single isomer, unassigned) [Example 627, 2-[(1H-benzimidazol-2-yl)(1-methylpiperidin-4-yloxy)methyl]phenol]
< 0.3	CC(=O)NC(=N)NCCSc1cccc(C(OC2CCN(C)CC2)c2nc3ccccc3[nH]2)c1 (stereo not drawn) [Example 401, N-acetyl-N′-(2-{3-[(1H-benzimidazol-2-yl)(1-methylpiperidin-4-yloxy)methyl]phenylsulfanyl}ethyl)guanidine]
< 0.3	CN1CCC(OC(c2cccc(CCCCCNC(=N)N)c2)c2nc3ccccc3s2)CC1 (stereo not drawn) [Example 365, N-(5-{3-[benzothiazol-2-yl(1-methylpiperidin-4-yloxy)methyl]phenyl}pentyl)guanidine]
< 0.3	CN1CCC(OC(c2ccccc2)c2nc3cc(F)ccc3s2)CC1 (stereo not drawn) [Example 33, 5-fluoro-2-[(1-methylpiperidin-4-yloxy)phenylmethyl]benzothiazole]
< 0.03	C=CCOc1cccc(C(OC2CCN(C)CC2)c2nc3ccccc3s2)c1 (stereo not drawn) [Example 22, 2-[(3-allyloxyphenyl)(1-methylpiperidin-4-yloxy)methyl]benzothiazole]
